Source: patent US9107914B2, “Beta-carbolines for use in the treatment of hearing loss and vertigo” (AudioCure Pharma GmbH, priority 2009, dated 2015)

Columns and labels:
[1] = tested on: BDNF (brain-derived neurotrophic factor) in human SH-SY5Y cells; test: Relative gene expression of BDNF (FIG. 4A); type: cell-based; details: SH-SY5Y cells
Protocol: (§1) Next, it was investigated, whether the substances could induce the formation of nerve growth factors in human SH-SY5Y neuroblastoma cell. After 2 and 14 days the cells were harvested and the expression of the target gene and the house keeping gene was determined via reverse transcriptase-PCR.

[2] = tested on: transcription factor CREB in SH-SY5Y cells; test: Dual luciferase method for intracellular cascades (FIG. 5); type: cell-based, human; details: dose-dependent activating effect, 48 h incubation, three independent experiments
Excerpt: The effects of β-carbolines on several intracellular cascades were investigated. Of them it is known, that at their respective ends, several transcription factors are formed in the cell nucleus, that in turn activate the transcription of a group of further genes. The dual luciferase method was used. One luciferase served as transfection control, whereas the second is coupled to the appropriate specific binding sequence of the DNA.

[3] = tested on: human SH-SY5Y neuroblastoma cells; test: Differentiation model / neurite length in human neuroblastoma cells; type: cell-based; details: 14 days; for neurite length: vs control group, P<0.001; for differentiation / neurite length in comparison to 9-methyl-β-carboline: SH-SY5Y cells; for differentiation / neurite length in comparison to 9-methyl-β-carboline: key: +: marginally better than 9-methyl-β-carboline; ±: equal to 9-methyl-β-carboline; −: marginally worse than 9-methyl-β-carboline
Excerpt: Human neuroblastoma cells were utilised for this model. These are permanent cells, which are present as an indifferent type in culture. They can be activated to differentiate, i.e. transformation into neuronal cells, by addition of specific substances such as retinoic acid, […] (BDNF) or activator of the enzyme, protein kinase C to the culture medium. We used this cell system to analyse whether beta-carbolines can transform the indifferent cells into the neuronal type. Criteria were: less proliferation (less cells per field of view); smaller cell bodies (transformation from the indifferent type to the neuronal type); cytodendrites (neuritis), which provide connections to neighbouring cells or clusters of neighbouring cells.
Human SH-SY5Y neuroblastoma cells were incubated in culture for 14 days with solvent (Ko) or test substance. A shift of the graph to the right side for a test substance, pointed to an increase of neurite length, when compared to the graph for the control substance. Statistical differences between the treated groups were calculated with the Tukey's Multiple Comparison-Test.
Shown are the cumulative frequency distributions of neurite lengths, determined in at least 20 randomly selected visual fields (each 640.000 μm^2) in three independent experiments. A steep rise pointed to a predominance of short neuritis, wherein for example in control cells, a less steep rise signified a greater number of longer neurites. The horizontal maximum indicated the maximal neurite length of the respective treatment group. […] The effects are dose- and substance-dependent: 1-methyl-β-carboline <6-methoxy-9-methyl-β-carboline <9-methyl-β-carboline <9-fluorethyl-β-carboline).
The effects of the other inventive β-carbolines (compounds A-L and VI-XX) on neurite length were determined, as described above, in human SH-SY5Y neuroblastoma cells after 14 days.

inner ear of guinea pigs = test: Prophylaxis of hearing damages in an animal model, gentamicin and etacrynic acid (Example 30); type: in vivo; details: infusion to the round window recess, gentamicin and etacrynic acid i.v.
Protocol: A solution containing β-carboline was infused continuously into the recess in front of the membrane of the round window of guinea pigs by a osmotic mini-pump for three days. The following β-carbolines were tested individually in this experiment: 9-methyl-β-carboline, compounds XI, XII, XVIII, XIX as well as C to L.
Then, a standard dose of gentamicin and etacrynic acid was injected intravenously into guinea pigs. Gentamicin and etacrynic acid damage the inner ear. Typically, they are used as toxins to induce deafness in such studies. The infusion was continued for further two days. Then, the electrophysiological activity of the nerve cells of the brain stem, which transmit the impulses of the inner ear, was deduced after acoustic irradiation of the ear with […]. The non-β-carboline-treated ear served as intraindividual control (Prieskorn D M, Miller J M. Technical report: chronic and acute intracochlear infusion in rodents. Hear Res, 2000; 140(1-2): 212-215). Moreover, animals were infused with 9-Me-BC only but not with gentamicin as a further control.
The measured electrophysiological activity of the nerve cells of the acoustic nerve (hearing threshold) served as a measure of the degree of therapeutic effect of the used β-carbolines on the inner ear. As can be learned from Table 3, the used β-carbolines show the increase in electrophysiological activity of the nerve cells of the acoustic nerve. It can be concluded from this that β-carbolines are useful for the treatment of hearing damages, vertigo, and vestibular disorders.

[4] = tested on: BDNF, GDNF, NGF and NPY in human SH-SY5Y neuroblastoma cells; test: Gene expression of growth factors by reverse transcriptase-PCR (Table 2 summary); type: cell-based; details: after 2 and 14 days; note: key: +: marginally better than 9-methyl-β-carboline; ±: equal to 9-methyl-β-carboline; −: marginally worse than 9-methyl-β-carboline
Protocol: as §1
The effects of the other inventive β-carbolines (compounds A-L and VI-XX) on the gene expression of BDNF, GDNF, NGF and NPY were determined, as described above, in human SH-SY5Y neuroblastoma cells after 2 and 14 days.

[5] = tested on: cells of the spiral ganglion of the inner ear; details: 48 hours of culture; cited from earlier work

Molecule | BDNF transcription [1] | formation of the transcription factor CREB relative to the level in control cells [2] | neurite length ([3]; 50 μM) | differentiation / neurite length in comparison to 9-methyl-β-carboline [3] | effect on the inner ear (electrophysiological activity, hearing threshold) in comparison to 9-methyl-β-carboline (inner ear of guinea pigs) | gene expression of BDNF, GDNF, NGF and NPY in comparison to 9-methyl-β-carboline [4] | neurite length ([3]; 110 μM) | survival of cells of the spiral ganglion [5]
COc1ccc2c(c1)c1ccncc1n2C [9-Me-6-MeO—BC (XVIII), 6-methoxy-9-methyl-9H-β-carboline] | enormous, dose-dependent increase | up to ten times | increase in neurite length | + | ± |  |  | 
C/C=C/C(C)=C\n1c2ccccc2c2ccnc(Cl)c21 [compound (IX)] |  |  |  | − | − | − |  | 
COc1ccc2c(c1)c1ccncc1n2C(C)C [compound (VII)] |  |  |  | − | − | ± |  | 
COc1ccc2c(c1)c1ccncc1n2C1CC1 [compound (XI)] |  |  |  | + | ± | ± |  | 
Cn1c2ccc(OC(F)(F)F)cc2c2ccncc21 [compound (XII)] |  |  |  | + | + | + |  | 
CN(C)c1ccc2c(c1)c1ccncc1n2C [compound (XIII)] |  |  |  | ± | ± | ± |  | 
COc1nccc2c3cc(Cl)ccc3n(C)c12 [compound (XIV)] |  |  |  | − | − | − |  | 
Cc1ccc2c(c1)c1ccnc(C(C)C)c1n2C [compound (XVI)] |  |  |  | − | − | − |  | 
Cc1ccc2c(c1)c1ccncc1n2C [compound (XVII)] |  |  |  | ± | − | ± |  | 
C=CCn1c2ccccc2c2ccncc21 [compound (XX)] |  |  |  | − | ± | ± |  | 
CCCn1c2ccccc2c2ccncc21 [compound A] |  |  |  | − | − | − |  | 
CCCCCCn1c2ccccc2c2ccncc21 [compound B] |  |  |  | − | − | − |  | 
CCCCCCCCCCCCCCn1c2ccccc2c2ccncc21 [compound C] |  |  |  | ± | + | ± |  | 
C=CCn1c2ccccc2c2ccncc21 [compound D] |  |  |  | + | − | + |  | 
CC(C)Cn1c2ccccc2c2ccncc21 [compound E] |  |  |  | + | − | ± |  | 
CCn1c2ccccc2c2ccncc21 [compound F] |  |  |  | ± | ± | ± |  | 
COCCn1c2ccccc2c2ccncc21 [compound G] |  |  |  | ± | + | ± |  | 
C#CCn1c2ccccc2c2ccncc21 [compound H] |  |  |  | + | + | ± |  | 
c1ccc(Cn2c3ccccc3c3ccncc32)cc1 [compound I] |  |  |  | − | − | − |  | 
COC(=O)CCn1c2ccccc2c2ccncc21 [compound J] |  |  |  | ± | ± | − |  | 
CC(C)C(C)Cn1c2ccccc2c2ccncc21 (centres unmarked) [compound K] |  |  |  | ± | ± | − |  | 
CN(C)CCn1c2ccccc2c2ccncc21 [compound L] |  |  |  | + | + | ± |  | 
Cc1nccc2c1[nH]c1ccccc12 [harman, 1-methyl-β-carboline, reference compound] |  |  |  | − | − | − | increase in neurite length | 
BDNF: brain-derived neurotrophic factor (protein, UniProt P23560 19-247, looked up) Neurotrophic factor BDNF …: APMKEANIRGQGGLAYPGVRTHGTLESVNGPKAGSRGLTSLADTFEHVIEELLDEDQKVRPNEENNKDADLYTSRVMLSSQVPLEPPLLFLLEEYKNYLDAANMSMRVRRHSDPARRGELSVCDSISEWVTAADKKTAVDMSGGTVTVLEKVPVSKGQLKQYFYETKCNPMGYTKEGCRGIDKRHWNSQCRTTQSYVRALTMDSKKRIGWRFIRIDTSCVCTLTIKRGR |  |  |  |  |  |  |  | neuroprotective properties
GDNF: Glial cell line derived neurotrophic factor (protein, UniProt P39905 78-211, looked up) Glial cell line-derived …: SPDKQMAVLPRRERNRQAAAANPENSRGKGRRGQRGKNRGCVLTAIHLNVTDLGLGYETKEELIFRYCSGSCDAAETTYDKILKNLSRNRRLVSDKVGQACCRPIAFDDDLSFLDDNLVYHILRKHSAKRCGCI |  |  |  |  |  |  |  | neuroprotective properties
